According to ChEMBL document CHEMBL5576145, “Domoic Acid as a Lead for the Discovery of the First Selective Ligand for Kainate Receptor Subtype 5 (GluK5)” (J Med Chem, 2024):

How the values were obtained:
[1] = biological target: Glutamate NMDA receptor (Rattus norvegicus) (UniProt P35439+Q00959+Q00960+Q00961+Q62645+Q8VHN2+Q9R1M7); assay: Displacement of [3H]CGP39653 from NMDA receptor in rat cortical synaptosomes assessed as remaining activity at 10 uM incubated for 60 mins by Topcount microplate scintillation counting method relative to control; format: subcellular; conditions: Cortex, Synaptosome
[2] = Displacement of [3H]-KA from KA in rat cortical synaptosomes incubated for 60 mins by TopCount microplate scintillation counting method; format: subcellular, Cortex, Synaptosome
[3] = biological target: T1, Glutamate receptor ionotropic, kainate 5 (Mus musculus, UniProt Q61626); assay: Displacement of [3H]-kainate from mouse GluK5 expressed in Sf9 cell membrane incubated for 2 hrs by scintillation counting method; format: cell membranes
T1 sequence (Q61626 whole entry): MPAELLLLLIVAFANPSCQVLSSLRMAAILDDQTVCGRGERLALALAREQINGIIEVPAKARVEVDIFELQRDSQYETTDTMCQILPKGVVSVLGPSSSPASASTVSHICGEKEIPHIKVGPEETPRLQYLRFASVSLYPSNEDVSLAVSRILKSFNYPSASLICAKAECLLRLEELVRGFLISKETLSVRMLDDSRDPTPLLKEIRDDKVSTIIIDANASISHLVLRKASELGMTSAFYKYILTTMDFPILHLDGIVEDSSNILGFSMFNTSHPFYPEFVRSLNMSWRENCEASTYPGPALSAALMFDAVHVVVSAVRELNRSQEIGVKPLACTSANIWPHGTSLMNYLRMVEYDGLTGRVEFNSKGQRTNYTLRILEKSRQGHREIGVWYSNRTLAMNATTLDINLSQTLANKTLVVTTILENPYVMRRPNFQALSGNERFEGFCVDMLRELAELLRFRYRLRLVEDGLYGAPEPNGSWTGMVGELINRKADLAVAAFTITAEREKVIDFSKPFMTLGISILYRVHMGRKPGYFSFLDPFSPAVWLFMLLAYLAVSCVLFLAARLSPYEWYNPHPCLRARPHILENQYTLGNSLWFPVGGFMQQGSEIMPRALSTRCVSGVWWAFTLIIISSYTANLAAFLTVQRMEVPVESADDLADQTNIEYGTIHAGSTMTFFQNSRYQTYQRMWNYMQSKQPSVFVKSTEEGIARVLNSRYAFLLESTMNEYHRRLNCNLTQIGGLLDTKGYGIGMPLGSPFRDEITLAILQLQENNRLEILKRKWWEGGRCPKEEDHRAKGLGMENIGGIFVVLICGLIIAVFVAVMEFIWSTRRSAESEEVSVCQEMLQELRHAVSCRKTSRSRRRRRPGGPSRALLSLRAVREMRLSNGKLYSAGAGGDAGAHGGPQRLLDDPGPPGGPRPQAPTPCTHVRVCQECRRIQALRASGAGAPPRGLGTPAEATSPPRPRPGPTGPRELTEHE

[4] = biological target: Glutamate receptor 4 (Rattus norvegicus) (UniProt P19493); assay: Displacement of [3H]-AMPA from AMPA in rat cortical synaptosomes assessed as remaining activity at 10 uM incubated for 30 mins by TopCount microplate scintillation counting method relative to control; format: subcellular; conditions: Cortex, Synaptosome
Chain of Glutamate receptor 4 (Rattus norvegicus) (P19493 whole entry): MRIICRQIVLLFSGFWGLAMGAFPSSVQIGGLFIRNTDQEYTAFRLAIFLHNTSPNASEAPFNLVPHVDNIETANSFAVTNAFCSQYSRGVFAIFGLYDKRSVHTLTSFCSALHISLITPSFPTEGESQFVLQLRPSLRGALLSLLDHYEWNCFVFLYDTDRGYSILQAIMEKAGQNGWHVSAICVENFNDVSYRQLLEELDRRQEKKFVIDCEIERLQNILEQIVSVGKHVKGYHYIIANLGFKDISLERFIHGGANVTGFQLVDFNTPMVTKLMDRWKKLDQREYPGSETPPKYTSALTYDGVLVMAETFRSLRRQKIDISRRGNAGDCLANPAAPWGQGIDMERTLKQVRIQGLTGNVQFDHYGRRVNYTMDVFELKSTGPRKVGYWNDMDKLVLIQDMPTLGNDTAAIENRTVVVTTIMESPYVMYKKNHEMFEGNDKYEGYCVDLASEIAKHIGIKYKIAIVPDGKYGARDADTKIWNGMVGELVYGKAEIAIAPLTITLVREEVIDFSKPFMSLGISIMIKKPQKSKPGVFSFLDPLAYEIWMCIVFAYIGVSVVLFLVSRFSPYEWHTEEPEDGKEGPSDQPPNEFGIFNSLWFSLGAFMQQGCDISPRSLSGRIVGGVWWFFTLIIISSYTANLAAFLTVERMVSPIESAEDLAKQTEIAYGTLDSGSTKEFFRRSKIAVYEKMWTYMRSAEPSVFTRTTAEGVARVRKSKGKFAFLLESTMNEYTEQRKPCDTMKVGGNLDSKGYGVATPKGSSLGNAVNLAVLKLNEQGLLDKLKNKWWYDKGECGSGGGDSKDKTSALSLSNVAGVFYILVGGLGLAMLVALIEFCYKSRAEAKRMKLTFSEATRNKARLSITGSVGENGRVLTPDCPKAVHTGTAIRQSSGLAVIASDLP

[5] = biological target: Glutamate receptor ionotropic, kainate 1 (Rattus norvegicus, UniProt P22756); assay: Displacement of [3H]-NF608 from rat GluK1
Chain of Glutamate receptor ionotropic, kainate 1 (P22756 whole entry): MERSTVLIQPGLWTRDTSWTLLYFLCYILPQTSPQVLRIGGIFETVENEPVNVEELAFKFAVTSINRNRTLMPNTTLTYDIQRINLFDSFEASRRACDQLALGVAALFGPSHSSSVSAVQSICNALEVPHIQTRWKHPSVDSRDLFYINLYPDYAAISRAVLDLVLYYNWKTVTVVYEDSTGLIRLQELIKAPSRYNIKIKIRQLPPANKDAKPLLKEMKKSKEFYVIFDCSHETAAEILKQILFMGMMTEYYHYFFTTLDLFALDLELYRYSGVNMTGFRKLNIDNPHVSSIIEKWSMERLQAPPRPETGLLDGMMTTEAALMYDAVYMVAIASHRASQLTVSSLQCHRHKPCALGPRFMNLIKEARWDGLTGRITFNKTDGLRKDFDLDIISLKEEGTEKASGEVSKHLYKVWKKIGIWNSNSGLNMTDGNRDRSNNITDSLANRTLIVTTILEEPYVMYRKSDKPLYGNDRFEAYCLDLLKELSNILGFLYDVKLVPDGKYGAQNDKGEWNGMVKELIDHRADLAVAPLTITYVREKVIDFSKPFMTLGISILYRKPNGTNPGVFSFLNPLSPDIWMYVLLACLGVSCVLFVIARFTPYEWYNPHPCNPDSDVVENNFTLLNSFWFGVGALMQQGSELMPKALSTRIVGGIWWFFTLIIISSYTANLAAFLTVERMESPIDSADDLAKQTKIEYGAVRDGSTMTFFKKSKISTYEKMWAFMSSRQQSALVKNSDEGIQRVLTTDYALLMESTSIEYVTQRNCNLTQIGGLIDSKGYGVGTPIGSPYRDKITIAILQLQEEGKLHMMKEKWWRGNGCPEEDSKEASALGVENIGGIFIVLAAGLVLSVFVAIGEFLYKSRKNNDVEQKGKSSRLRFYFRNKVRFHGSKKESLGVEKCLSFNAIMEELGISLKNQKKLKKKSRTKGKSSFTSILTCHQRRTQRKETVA

[6] = biological target: Glutamate receptor ionotropic, kainate 3 (Rattus norvegicus, UniProt P42264); assay: Displacement of [3H]-KA from rat GluK3
Chain of Glutamate receptor ionotropic, kainate 3 (P42264 whole entry): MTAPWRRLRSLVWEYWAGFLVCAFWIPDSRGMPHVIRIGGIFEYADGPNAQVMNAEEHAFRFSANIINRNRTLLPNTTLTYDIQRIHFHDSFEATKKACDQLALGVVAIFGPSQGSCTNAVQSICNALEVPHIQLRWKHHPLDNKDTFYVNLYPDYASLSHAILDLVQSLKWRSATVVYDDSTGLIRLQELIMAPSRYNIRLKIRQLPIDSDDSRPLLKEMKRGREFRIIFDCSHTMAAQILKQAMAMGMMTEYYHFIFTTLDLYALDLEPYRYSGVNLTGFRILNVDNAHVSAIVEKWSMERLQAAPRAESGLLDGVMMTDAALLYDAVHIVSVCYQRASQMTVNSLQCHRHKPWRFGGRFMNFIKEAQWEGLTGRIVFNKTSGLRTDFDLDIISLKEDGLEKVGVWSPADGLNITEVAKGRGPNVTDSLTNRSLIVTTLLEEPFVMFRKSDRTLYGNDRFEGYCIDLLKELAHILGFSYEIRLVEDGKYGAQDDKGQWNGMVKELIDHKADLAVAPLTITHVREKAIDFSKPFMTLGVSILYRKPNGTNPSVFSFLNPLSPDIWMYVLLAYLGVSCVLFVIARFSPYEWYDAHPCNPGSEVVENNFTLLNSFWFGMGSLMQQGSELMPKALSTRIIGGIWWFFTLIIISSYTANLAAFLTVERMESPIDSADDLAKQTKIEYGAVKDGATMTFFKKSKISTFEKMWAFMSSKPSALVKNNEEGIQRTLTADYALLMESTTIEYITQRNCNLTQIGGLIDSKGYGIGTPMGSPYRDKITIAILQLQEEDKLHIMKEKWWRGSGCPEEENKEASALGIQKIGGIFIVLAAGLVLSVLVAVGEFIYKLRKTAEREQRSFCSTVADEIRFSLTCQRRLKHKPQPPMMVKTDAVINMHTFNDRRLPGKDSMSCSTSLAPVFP

[7] = biological target: Glutamate receptor ionotropic, kainate 2 (Rattus norvegicus, UniProt P42260); assay: Displacement of [3H]-KA from rat GluK2
Chain of Glutamate receptor ionotropic, kainate 2 (P42260 whole entry): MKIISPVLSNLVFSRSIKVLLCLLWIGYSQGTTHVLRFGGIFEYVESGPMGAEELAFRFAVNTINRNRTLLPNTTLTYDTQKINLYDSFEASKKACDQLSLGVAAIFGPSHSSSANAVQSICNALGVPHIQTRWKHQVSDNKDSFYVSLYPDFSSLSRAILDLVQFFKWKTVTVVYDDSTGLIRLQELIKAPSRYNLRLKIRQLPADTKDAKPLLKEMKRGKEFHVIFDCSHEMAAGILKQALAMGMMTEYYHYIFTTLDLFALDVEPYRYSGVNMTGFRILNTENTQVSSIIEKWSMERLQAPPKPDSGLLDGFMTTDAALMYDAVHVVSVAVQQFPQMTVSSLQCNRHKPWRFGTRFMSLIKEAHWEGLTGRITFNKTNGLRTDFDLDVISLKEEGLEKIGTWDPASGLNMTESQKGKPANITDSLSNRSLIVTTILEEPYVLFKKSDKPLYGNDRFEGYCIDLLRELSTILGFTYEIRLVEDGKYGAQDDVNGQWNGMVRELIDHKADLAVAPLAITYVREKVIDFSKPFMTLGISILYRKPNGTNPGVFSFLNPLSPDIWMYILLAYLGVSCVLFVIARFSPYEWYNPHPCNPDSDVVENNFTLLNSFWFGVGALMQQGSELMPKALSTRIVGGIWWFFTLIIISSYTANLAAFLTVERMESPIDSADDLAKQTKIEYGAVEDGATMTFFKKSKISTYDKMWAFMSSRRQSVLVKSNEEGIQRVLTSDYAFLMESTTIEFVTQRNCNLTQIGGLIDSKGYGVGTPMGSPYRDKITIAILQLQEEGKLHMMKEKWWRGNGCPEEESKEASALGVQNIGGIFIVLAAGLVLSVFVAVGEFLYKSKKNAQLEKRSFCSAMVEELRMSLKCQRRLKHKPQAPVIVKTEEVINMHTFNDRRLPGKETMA

[8] = Selectivity ratio of Ki for displacement of [3H]-KA from rat GluK3 to Ki for displacement of [3H]-kainate from mouse GluK5
[9] = Selectivity ratio of Ki for displacement of [3H]-NF608 from rat GluK1 to Ki for displacement of [3H]-kainate from mouse GluK5
[10] = Selectivity ratio of Ki for displacement of [3H]-KA from rat GluK2 to Ki for displacement of [3H]-kainate from mouse GluK5
[11] = biological target: Glutamate receptor ionotropic, kainate 1 (Rattus norvegicus) (UniProt P22756); assay: Displacement of [3H]-NF608 from rat GluK1 assessed as percent of radioligand binding at 10 uM relative to control
Chain of Glutamate receptor ionotropic, kainate 1 (Rattus norvegicus) (P22756 whole entry): as the sequence (P22756 whole entry) above

[12] = biological target: T2, Glutamate receptor ionotropic, kainate 5 (Mus musculus) (UniProt Q61626); assay: Displacement of [3H]-kainate from mouse GluK5 expressed in Sf9 cell membrane assessed as remaining activity at 10 uM incubated for 2 hrs by scintillation counting method relative to control; format: cell membranes
T2 sequence (whole entry): T1 sequence (Q61626 whole entry)

[13] = biological target: Glutamate receptor ionotropic, kainate 2 (Rattus norvegicus) (UniProt P42260); assay: Displacement of [3H]-KA from rat GluK2 assessed as percentage of radioligand binding at 10 uM relative to control
Chain of Glutamate receptor ionotropic, kainate 2 (Rattus norvegicus) (P42260 whole entry): as the sequence (P42260 whole entry) above

[14] = biological target: Glutamate receptor ionotropic, kainate 3 (Rattus norvegicus) (UniProt P42264); assay: Displacement of [3H]-KA from rat GluK3 assessed as percentage of radioligand binding at 10 uM relative to control
Chain of Glutamate receptor ionotropic, kainate 3 (Rattus norvegicus) (P42264 whole entry): as the sequence (P42264 whole entry) above

[15] = Displacement of [3H]-Kainic acid from KA in rat synaptic membrane; format: subcellular, Synaptosome
Glutamate receptor 4 [16] = biological target: T3, Glutamate receptor 4 (Rattus norvegicus, UniProt P19493); assay: Displacement of [3H]-AMPA from AMPA in rat synaptic membrane; format: subcellular, Synaptosome
T3 sequence (P19493 whole entry): as the sequence (P19493 whole entry) above

Glutamate NMDA receptor = assay: Displacement of [3H]CGP39653 from NMDA receptor in rat cortical synaptosomes incubated for 60 mins by Topcount microplate scintillation counting method; format: subcellular, Cortex, Synaptosome
Glutamate receptor 4 [17] = biological target: T3, Glutamate receptor 4; assay: Displacement of [3H]-AMPA from AMPA in rat cortical synaptosomes incubated for 30 mins by TopCount microplate scintillation counting method; format: subcellular, Cortex, Synaptosome
[18] = Binding affinity to KA receptor in rat synaptosomes; format: subcellular, Synaptosome
Rattus norvegicus = species on record: Rattus norvegicus; assay: Displacement of [3H]-KA from KA in rat cortical synaptosomes assessed as remaining activity at 10 uM incubated for 60 mins by TopCount microplate scintillation counting method relative to control; format: subcellular; conditions: Cortex, Synaptosome
Hippocampus = assay: Reduction in CA1 spike amplitude in Wistar rat hippocampal slices after 20 mins of toxin administration; format: functional, tissue-based
[19] = Displacement of [3H]-Kainic acid from KA in rat brain membrane preincubated for 15 mins followed by [3H]-Kainic acid addition and measured after 1 hr by scintillation counting method; format: cell membranes
Glutamate receptor 4 [20] = biological target: T3, Glutamate receptor 4; assay: Displacement of [3H]-AMPA from AMPA in rat brain membrane preincubated for 15 mins followed by [3H]-AMPA addition and measured after 40 mins by scintillation counting method; format: cell membranes

Row | Structure (SMILES) | Activity [1] [%] | IC50 [2] [µM] | Ki [3] [µM] | Activity [4] [%] | Activity [11] [%] | Activity [13] [%] | Activity [14] [%] | also measured
1 | O=C(O)CCCc1cnnn1[C@H]1CN[C@H](C(=O)O)[C@H]1CC(=O)O | 90 | 2.3 | 0.483 | 86 | – | – | – | Ki [5]: 10.8 µM; Ki [6]: 6.1 µM; Ki [7]: 7.79 µM
2 | O=C(O)C[C@@H]1[C@@H](C(=O)O)NC[C@@H]1n1nncc1-c1ccccc1 | 101 | 5.1 | 0.499 | 80 | 93 | – | – | Ratio Ki [8]: > 40; Ratio Ki [9]: > 40; Ki [6]: 21.1 µM; Ratio Ki [10]: > 40; Ki [7]: 36 µM
3 | O=C(O)C[C@@H]1[C@@H](C(=O)O)NC[C@@H]1n1nncc1-c1ccc(C(F)(F)F)cc1 | – | – | – | – | 95 | 103 | 85 | Activity [12]: 62%
4 | O=C(O)C[C@@H]1[C@@H](C(=O)O)NC[C@@H]1c1ccc(C(=O)O)[nH]c1=O | – | – | – | – | – | – | – | IC50 [15]: 0.33 µM; IC50 (Glutamate receptor 4 [16]): 0.06 µM
5 | CCc1ccc(-c2cnnn2[C@H]2CN[C@H](C(=O)O)[C@H]2CC(=O)O)cc1 | – | – | – | – | 95 | 92 | 83 | Activity [12]: 45%
6 | O=C(O)CCc1cn([C@H]2CN[C@H](C(=O)O)[C@H]2CC(=O)O)nn1 | – | > 100 | – | – | – | – | – | Ki [5]: > 100 µM; Ki (Glutamate NMDA receptor): > 100 µM; IC50 (Glutamate receptor 4 [17]): > 100 µM; Ki [6]: > 100 µM; Ki [7]: > 100 µM
7 | Nc1cccc(-c2cn([C@H]3CN[C@H](C(=O)O)[C@H]3CC(=O)O)nn2)c1 | – | – | 3.25 | – | 97 | 102 | 93 | –
8 | Cc1nc([C@H]2CN[C@H](C(=O)O)[C@H]2CC(=O)O)cs1 | – | – | – | – | – | – | – | IC50 [18]: 0.006 µM
9 | O=C(O)C[C@@H]1[C@@H](C(=O)O)NC[C@@H]1n1nncc1C(=O)O | 66 | – | – | 85 | 79 | 85 | 79 | Activity [12]: 89%; Activity (Rattus norvegicus): 80%
10 | C=C(CC/C=C(\C)C(=O)O)[C@H]1CN[C@H](C(=O)O)[C@H]1CC(=O)O | – | – | – | – | – | – | – | EC50 (Hippocampus): 3.71 µM
11 | O=C(O)C[C@@H]1[C@@H](C(=O)O)NC[C@@H]1n1nncc1CO | 102 | 22 | 7.97 | 86 | 94 | 76 | 84 | –
12 | C/C(=C\C=C\[C@@H](C)C(=O)O)[C@H]1CN[C@H](C(=O)O)[C@H]1CC(=O)O [DOMORIC ACID] | – | – | – | – | – | – | – | IC50 [19]: 0.94 µM; IC50 (Glutamate receptor 4 [20]): 12 µM
13 | O=C(O)C[C@@H]1[C@@H](C(=O)O)NC[C@@H]1n1nncc1-c1cccc(C(F)(F)F)c1 | – | 5.1 | 2.15 | 80 | 92 | 76 | 90 | Ki (Glutamate NMDA receptor): 101 µM
14 | COc1cccc(-c2cnnn2[C@H]2CN[C@H](C(=O)O)[C@H]2CC(=O)O)c1 | – | – | 1.02 | – | 88 | 89 | 74 | –
15 | O=C(O)C[C@@H]1[C@@H](C(=O)O)NC[C@@H]1n1nncc1Cc1ccccc1 | 87 | – | 11.1 | 86 | 99 | 92 | 94 | Activity (Rattus norvegicus): 79%
16 | O=C(O)C[C@@H]1[C@@H](C(=O)O)NC[C@@H]1n1nncc1-c1cccnc1 | – | – | – | – | 98 | 92 | 80 | Activity [12]: 47%
